The structures appear in SMILES notation. Some results are limits rather than exact numbers.

In assay [1] the target is Cyclin-dependent kinase 2 (Homo sapiens) (UniProt P24941). Put plainly: Inhibition of CDK2 (unknown origin) assessed as remaining enzyme activity at 1 uM.
Assay [2] has as its target Aurora kinase B (Homo sapiens) (UniProt Q96GD4). Put plainly: Inhibition of Aurora kinase B (unknown origin) assessed as remaining enzyme activity at 1 uM.
The test system of assay [3] is MCF7. Put plainly: Antiproliferative activity against human MCF7 cells by MTT assay. In kind it is functional, cell-based. (Formazan colour is commonly taken as a measure of viable cells.)
Assay [4] has as its target T1, Glycogen synthase kinase-3 beta (Homo sapiens, UniProt P49841). Put plainly: Inhibition of GSK3beta (unknown origin) assessed as remaining enzyme activity at 1 uM.
Target sequence in this assay (P49841 whole entry, looked up): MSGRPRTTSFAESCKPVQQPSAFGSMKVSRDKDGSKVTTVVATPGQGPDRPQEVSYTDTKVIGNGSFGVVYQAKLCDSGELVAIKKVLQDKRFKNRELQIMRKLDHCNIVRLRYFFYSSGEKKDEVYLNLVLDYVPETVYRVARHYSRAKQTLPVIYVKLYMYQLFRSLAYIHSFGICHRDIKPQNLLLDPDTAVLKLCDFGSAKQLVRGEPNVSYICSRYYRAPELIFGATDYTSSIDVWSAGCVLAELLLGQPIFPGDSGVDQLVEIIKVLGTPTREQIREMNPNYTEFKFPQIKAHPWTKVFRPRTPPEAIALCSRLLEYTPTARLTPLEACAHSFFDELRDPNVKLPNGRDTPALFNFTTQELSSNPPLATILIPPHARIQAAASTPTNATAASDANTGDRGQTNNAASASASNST
In assay [5] the target is T1, Glycogen synthase kinase-3 beta. Put plainly: Inhibition of His-tagged full length human recombinant GSK3beta using [YRRAAVPPSPSLSRHSSPHQ-(pS)EDEEE] substrate and pre-incubarted for 20 mins before [gamma-33P]ATP addition and measured after 2 hrs by radiometric kinase assay.
Target sequence in this assay (P49841 whole entry): as the sequence (P49841 whole entry, looked up) above
Assay [6] relates to MDA-MB-231. Put plainly: Antiproliferative activity against human MDA231 cells by MTT assay. Format: functional, cell-based.
The test system of assay [7] is SK-BR-3. Put plainly: Antiproliferative activity against human SKBR3 cells by MTT assay. Format: functional, cell-based.

Chain of Aurora kinase B (Homo sapiens) (Q96GD4 whole entry): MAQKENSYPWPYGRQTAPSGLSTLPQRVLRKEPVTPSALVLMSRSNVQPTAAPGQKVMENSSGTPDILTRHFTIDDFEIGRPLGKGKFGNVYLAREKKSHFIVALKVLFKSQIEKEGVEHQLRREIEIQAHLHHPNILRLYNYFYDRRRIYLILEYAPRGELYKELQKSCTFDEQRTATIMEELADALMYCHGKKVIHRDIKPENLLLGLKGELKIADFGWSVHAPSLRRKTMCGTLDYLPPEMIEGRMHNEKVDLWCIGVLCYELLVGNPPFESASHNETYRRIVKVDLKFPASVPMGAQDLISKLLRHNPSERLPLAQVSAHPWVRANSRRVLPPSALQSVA

The term IC50 denotes the concentration that gives 50% inhibition. Consider `CC(=O)c1ccc(-c2c[nH]c3ncc(/C=C/C(=O)NCCc4ccccn4)cc23)cc1`, for which the Activity in assay [1] came to 85%; in assay [2], 23%; in assay [4], 3.4%. The IC50 was over 10000 nM in assay [3], 1.37 nM in assay [5], over 10000 nM in assay [6] and over 10000 nM in assay [7].

As to `N#Cc1ccc(-c2c[nH]c3ncc(/C=C/C(=O)NCc4ccncc4)cc23)cc1`, the IC50 in assay [5] came to 63.1 nM.

With `O=C(/C=C/c1cnc2[nH]cc(-c3ccccc3)c2c1)NCc1ccncc1`, the IC50 in assay [5] stood at 3.59 nM.

Turning to `CC(=O)c1ccc(-c2c[nH]c3ncc(/C=C/C(=O)NCc4ccncc4)cc23)cc1`, in assay [5], the IC50 was 1.42 nM.

For the compound `O=C(/C=C/c1cnc2[nH]cc(-c3ccccc3)c2c1)NCc1ccc2[nH]ccc2c1`, the IC50 in assay [5] was found to be 462 nM.

As for `O=C(/C=C/c1cnc2[nH]cc(-c3ccc(F)cc3)c2c1)NCc1ccncc1`, the half-inhibitory concentration (IC50) in assay [5] is 22.8 nM.

For `O=C(/C=C/c1cnc2[nH]cc(-c3ccncc3)c2c1)NCc1ccncc1`, the concentration for half-maximal inhibition (IC50) in assay [5] came out at 2.75 nM.

With `O=C(/C=C/c1cnc2[nH]cc(-c3ccccc3)c2c1)NCCc1c[nH]c2ccccc12`, in assay [5], the IC50 amounted to 356 nM.

Regarding `NC(=O)c1ccc(-c2c[nH]c3ncc(/C=C/C(=O)NCc4ccncc4)cc23)cc1`, the IC50 in assay [5] was 4.43 nM.

With `O=C(C/C=C/c1cnc2[nH]cc(-c3ccccc3)c2c1)NCCc1c[nH]c2ccccc12`, in assay [5], the IC50 is 3760 nM.

Take `O=C(CNC(=O)c1cnc2[nH]cc(-c3ccccc3)c2c1)NCCc1c[nH]c2ccccc12`: in assay [5], the IC50 was 1450 nM.

With `O=C(CNC(=O)c1cnc2[nH]cc(-c3ccncc3)c2c1)NCCc1c[nH]c2ccccc12`, the IC50 in assay [5] was determined as 994 nM.

Take `CS(=O)(=O)c1ccc(-c2c[nH]c3ncc(/C=C/C(=O)NCc4ccncc4)cc23)cc1`: in assay [5], the IC50 was determined as 220 nM.

As to `O=C(CNC(=O)c1ccc2noc(-c3ccccc3)c2c1)NCCc1c[nH]c2ccccc12`, in assay [5], the IC50 was over 50000 nM.

Take `O=C(/C=C/c1cnc2[nH]cc(-c3ccccc3)c2c1)NCCc1ccccc1`: in assay [5], the IC50 was determined as 248 nM.

Consider `O=C(/C=C/c1cnc2[nH]cc(-c3ccccc3)c2c1)NCc1ccc2c(c1)CCO2`, for which the IC50 in assay [5] was 103 nM.

In the case of `O=C(/C=C/c1cnc2[nH]cc(-c3ccccc3)c2c1)NCc1nc2ccccc2[nH]1`, the IC50 in assay [5] was 62.1 nM.

As to `O=C(C/C=C/c1cnc2[nH]cc(-c3ccccc3)c2c1)NCCc1ccccc1`, the IC50 in assay [5] is over 50000 nM.

As to `O=C(/C=C/c1cnc2[nH]cc(-c3ccccc3)c2c1)NCCc1c[nH]c2ncccc12`, in assay [5], the concentration for half-maximal inhibition (IC50) amounted to 128 nM.

On to `O=C(/C=C/c1cnc2[nH]cc(-c3ccccc3)c2c1)NCc1ccco1`, for which, in assay [5], the half-inhibitory concentration (IC50) turned out to be 77.1 nM.

Take `O=C(/C=C/c1cnc2[nH]cc(-c3ccccc3)c2c1)NCc1ccccn1`: in assay [5], the IC50 worked out at 167 nM.

`O=C(/C=C/c1cnc2[nH]cc(-c3ccccc3)c2c1)NCCc1ccncc1`: the half-maximal inhibitory concentration (IC50) in assay [5] was 43.5 nM.

As for `O=C(/C=C/c1cnc2[nH]cc(-c3ccccc3)c2c1)NCc1cccnc1`, the IC50 in assay [5] was 64.2 nM.

Turning to `O=C(/C=C/c1cnc2[nH]cc(-c3cccnc3)c2c1)NCc1ccncc1`, in assay [5], the IC50 is 16.5 nM.

Regarding `COc1ccc(-c2c[nH]c3ncc(/C=C/C(=O)NCc4ccncc4)cc23)cc1`, the Activity came out at 97% in assay [1] and 1.2% in assay [4]. For the same compound, the IC50 is over 10000 nM in assay [3], 0.508 nM in assay [5], over 10000 nM in assay [6] and over 10000 nM in assay [7].

Take `O=C(/C=C/c1cnc2[nH]cc(-c3ccccc3)c2c1)NCCN1CCOCC1`: in assay [5], the IC50 came out at 45.7 nM.

Turning to `O=C(CNC(=O)c1ccc2[nH]cc(-c3ccncc3)c2c1)NCCc1c[nH]c2ccccc12`, in assay [5], the half-maximal inhibitory concentration (IC50) worked out at 33800 nM.

For the compound `O=C(CCc1cnc2[nH]cc(-c3ccccc3)c2c1)NCCc1c[nH]c2ccccc12`, the IC50 in assay [5] turned out to be 1030 nM.

The record behind these values is ChEMBL document CHEMBL4428132, “Application of Fragment-Based de Novo Design to the Discovery of Selective Picomolar Inhibitors of Glycogen Synthase Kinase-3 Beta” (J Med Chem, 2016).
